Measurements taken from ChEMBL document CHEMBL6109139, “Rational Design of the First Dual Agonist at Trace Amine-Associated Receptor 1 and 5-HT2C Receptors Based on Binding Pocket Similarity for the Treatment of Schizophrenia and Alzheimer's Disease-Related Psychosis” (J Med Chem, 2025).
pEC50: −log10 of the molar value. Calls of active or inactive are those of the source. The rule behind the calls is not given here.

Key:
[1] = Toxicity in female Sprague-Dawley rat assessed as suppression of body weight gain at 7.5 mg/kg, po administered once daily for 4 weeks and measured after 4 weeks; assay type: organism-based; details: in vivo, 1344 h, time 8 weeks
[2] = Plasma protein binding in rat assessed as unbound fraction by LC-MS/MS analysis; assay type: ADME, cell-free
[3] = Toxicity in male Sprague-Dawley rat assessed as irritability at 2.5 mg/kg, po administered once daily for 4 weeks; assay type: organism-based; details: in vivo, 672 h
[4] = target: Acetylcholinesterase (Homo sapiens) (UniProt P22303); experiment: Binding affinity to ACHE (unknown origin) at 10 uM by radioligand binding assay relative to control
[5] = target: 5-hydroxytryptamine receptor 7 (Homo sapiens, UniProt P34969); experiment: Agonist activity at recombinant human 5-HT7 expressed in HEK293 cells by measuring maximum efficacy at 2 uM by FLIPR calcium assay relative to control; assay type: functional, cell-based; details: filed as agonist
[6] = Toxicity in male Sprague-Dawley rat assessed as irritability at 7.5 mg/kg, po administered once daily for 4 weeks and measured after 4 weeks; assay type: organism-based; details: in vivo, 1344 h, time 8 weeks
[7] = Toxicity in female Sprague-Dawley rat assessed as corneal epithelial degeneration at 2.5 to 7.5 mg/kg, po administered once daily for 4 weeks and measured after 4 weeks; assay type: organism-based; details: in vivo, 1344 h, dose 2.5-7.5 mg/kg, time 8 weeks
[8] = target: L-type calcium channel (Homo sapiens, UniProt O60840+Q01668+Q13698+Q13936); experiment: Binding affinity to L-type calcium channel (unknown origin) at 10 uM by radioligand binding assay relative to control; assay type: protein assay; details: read-out: Activity
[9] = target: Trace amine-associated receptor 1 (Rattus norvegicus, UniProt Q923Y9); experiment: Agonist activity at rat TAAR1; assay type: functional
[10] = system: 5-hydroxytryptamine receptor 2C (Homo sapiens), P28335 [W324A]; experiment: Agonist activity at 5HT2CR W324A mutant (unknown origin) expressed in HEK293 cells assessed as IP1 level by HTRF IP1 competitive binding assay; assay type: cell-based
[11] = Ratio of drug concentration in male Sprague-Dawley rat brain to plasma at 5 mg/kg, IG measured after 1 hrs by LC-MS/MS analysis; assay type: ADME, organism-based; details: brain and plasma, po, read-out: BPR
[12] = Toxicity in female Beagle dog assessed as change in bone marrow smears at 0.75 to 2.5 mg/kg, IG administered once daily for 4 weeks and measured after 4 weeks; assay type: organism-based, Canis lupus familiaris; details: in vivo, po, 1344 h, dose 0.75-2.5 mg/kg, time 8 weeks
[13] = Mutagenicity in Salmonella typhimurium TA102 by Ames test; assay type: toxicity; details: salmonella enterica subsp. enterica serovar typhimurium
[14] = Toxicity in female Beagle dog assessed as change in organ ratios at 0.75 to 2.5 mg/kg, IG administered once daily for 4 weeks and measured after 4 weeks; assay type: organism-based, Canis lupus familiaris; details: in vivo, po, 1344 h, dose 0.75-2.5 mg/kg, time 8 weeks
[15] = Metabolic stability in mouse liver microsomes assessed as intrinsic clearance at 1 uM incubated for 60 mins by LC-MS/MS analysis; assay type: ADME, Microsome; details: read-out: CLH
[16] = Toxicity in male Beagle dog assessed as change in prolactin at 0.75 to 2.5 mg/kg, IG administered once daily for 4 weeks and measured after 4 weeks; assay type: organism-based, Canis lupus familiaris; details: in vivo, po, 1344 h, dose 0.75-2.5 mg/kg, time 8 weeks
[17] = Toxicity in female Sprague-Dawley rat assessed as irritability at 2.5 mg/kg, po administered once daily for 4 weeks; assay type: organism-based; details: in vivo, 672 h
[18] = Plasma protein binding in human assessed as unbound fraction by LC-MS/MS analysis; assay type: ADME, cell-free

Sequence of Acetylcholinesterase (Homo sapiens) (P22303 whole entry): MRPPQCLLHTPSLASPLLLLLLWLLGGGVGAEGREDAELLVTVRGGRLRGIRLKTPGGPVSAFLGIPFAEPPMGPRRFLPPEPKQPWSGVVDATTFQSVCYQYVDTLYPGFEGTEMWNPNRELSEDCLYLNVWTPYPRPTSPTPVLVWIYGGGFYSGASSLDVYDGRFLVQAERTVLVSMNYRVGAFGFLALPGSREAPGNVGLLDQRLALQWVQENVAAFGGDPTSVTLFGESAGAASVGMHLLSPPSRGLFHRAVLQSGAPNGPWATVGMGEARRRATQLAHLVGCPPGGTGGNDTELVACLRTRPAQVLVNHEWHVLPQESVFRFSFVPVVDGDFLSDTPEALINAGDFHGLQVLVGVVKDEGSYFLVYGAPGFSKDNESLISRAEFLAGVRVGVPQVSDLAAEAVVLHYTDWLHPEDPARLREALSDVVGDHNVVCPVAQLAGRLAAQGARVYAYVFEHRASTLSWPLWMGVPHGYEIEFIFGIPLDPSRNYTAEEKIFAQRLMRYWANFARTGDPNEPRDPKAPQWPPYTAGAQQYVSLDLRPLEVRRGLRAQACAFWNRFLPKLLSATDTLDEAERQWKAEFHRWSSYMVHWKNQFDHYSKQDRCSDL
Sequence of Trace amine-associated receptor 1 (Q923Y9 whole entry): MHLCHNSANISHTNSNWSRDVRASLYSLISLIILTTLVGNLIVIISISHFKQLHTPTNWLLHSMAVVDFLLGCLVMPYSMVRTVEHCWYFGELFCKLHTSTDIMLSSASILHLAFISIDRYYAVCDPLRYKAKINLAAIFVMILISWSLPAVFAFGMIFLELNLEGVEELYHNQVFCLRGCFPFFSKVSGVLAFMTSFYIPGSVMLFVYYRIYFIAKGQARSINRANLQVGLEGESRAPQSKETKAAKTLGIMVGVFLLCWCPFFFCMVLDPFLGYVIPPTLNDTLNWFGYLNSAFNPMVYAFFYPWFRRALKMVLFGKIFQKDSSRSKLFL
Sequence of 5-hydroxytryptamine receptor 2C (Homo sapiens), P28335 [W324A] (P28335 whole entry W324A): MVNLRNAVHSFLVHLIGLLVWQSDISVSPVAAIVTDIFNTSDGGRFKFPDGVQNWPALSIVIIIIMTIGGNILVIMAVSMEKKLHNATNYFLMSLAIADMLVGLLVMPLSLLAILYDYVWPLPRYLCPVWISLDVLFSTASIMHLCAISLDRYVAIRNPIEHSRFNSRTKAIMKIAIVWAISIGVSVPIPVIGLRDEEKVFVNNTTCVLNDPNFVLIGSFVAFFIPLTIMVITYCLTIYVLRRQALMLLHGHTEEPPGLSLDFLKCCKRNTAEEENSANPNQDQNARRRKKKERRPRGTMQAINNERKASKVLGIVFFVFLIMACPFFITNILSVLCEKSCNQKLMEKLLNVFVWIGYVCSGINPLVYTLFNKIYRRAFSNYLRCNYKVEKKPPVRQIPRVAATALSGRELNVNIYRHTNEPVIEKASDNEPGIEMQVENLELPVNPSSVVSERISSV
Sequence of 5-hydroxytryptamine receptor 7 (P34969 whole entry): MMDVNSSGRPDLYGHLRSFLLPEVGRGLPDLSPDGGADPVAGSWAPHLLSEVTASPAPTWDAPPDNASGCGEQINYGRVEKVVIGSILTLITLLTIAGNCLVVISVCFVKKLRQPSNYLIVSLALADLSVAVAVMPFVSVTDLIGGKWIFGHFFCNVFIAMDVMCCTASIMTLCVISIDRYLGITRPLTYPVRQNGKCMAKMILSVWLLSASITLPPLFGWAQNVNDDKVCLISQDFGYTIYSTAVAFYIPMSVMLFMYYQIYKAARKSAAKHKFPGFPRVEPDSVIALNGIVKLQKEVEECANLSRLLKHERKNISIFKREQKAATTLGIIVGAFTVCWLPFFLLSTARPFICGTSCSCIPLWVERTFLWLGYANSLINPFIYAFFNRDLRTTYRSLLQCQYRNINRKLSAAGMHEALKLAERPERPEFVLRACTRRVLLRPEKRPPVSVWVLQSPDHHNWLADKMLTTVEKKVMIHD

In the case of `c1cc2c(s1)[C@@H]1CNCCN1CC2`, the Activity [1] was “Toxic”, the fraction unbound [2] was 0.759 and the Activity [3] was “Toxic”. For the same molecule, the Activity [4] was -0.73%, the Emax [5] was 65.5% and the Activity [6] was “Non-toxic”. The Activity [7] was “Non-toxic”, the activity at 10 µM [8] was -7.25% and the pEC50 [9] was 6.17. For the same molecule, the Activity [10] was “inactive”, the Kp at 1 h [11] was 6.02 and the Activity [12] was “Non-toxic”. The Activity [13] was “Non-toxic”, the Activity [14] was “Non-toxic” and the CLint scaled at 1 µM [15] was < 29.7 mL/min/kg. The Activity [16] was “Non-toxic”, the Activity [17] was “Toxic” and the fraction unbound [18] was 0.668.
